Broadly, the IC50 is the concentration needed to halve the response being measured.

Assay [1] addresses SHP-2 enzyme (Met1-Leu525) (Homo sapiens (Human), UniProt Q06124). The assay can be described thus: SHP2 inhibition enzymatic assay. The assay is classed as biochemical. Particulars: 75 μM DiFMUP substrate. Summed up:
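Compounds were preincubated 30 min with 0.5 nM SHP-2 (Met1-Leu525) plus 500 nM IRS1 activating peptide (pH 7.2 HEPES, 5 mM DTT), then 75 μM DiFMUP substrate reacted 30 min at room temperature. After bpV quench, DiFMUP fluorescence gave % inhibition; four-parameter logistic fit yielded IC50.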

Assay [2] concerns ERK phosphorylation in KYSE-520 cells. Description: Phospho-ERK cellular assay. The format is cell-based. To be noted: read-out: PERK IC50. Summed up:
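TR-FRET read-out of ERK1/2 Thr202/Tyr204 phosphorylation was taken after overnight antibody incubation at room temperature. Before that, KYSE-520 cells were treated 2 h at 37 °C with compound dilutions and lysed 30 min. Percent inhibition relative to vehicle and cell-free wells was fitted four-parametrically to give IC50.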

[3] abbreviates: 0.5 nM SHP-2 activated by 500 nM IRS1 peptide, read-out: SHP2wt-IC50.
Where [4] appears, read: Homo sapiens, KYSE-520, 2 h, KYSE-520 cells, 2 h at 37° C., phospho-ERK1/2 (Thr202/Tyr204) TR-FRET.
Setting [5] is: KYSE-520 cells, 2 h at 37° C., phospho-ERK1/2 (Thr202/Tyr204) TR-FRET.

Molecules are shown by their SMILES. Where two headings read alike, the source gives them in different places.

Chain of SHP-2 enzyme (Met1-Leu525) (Q06124 1-525): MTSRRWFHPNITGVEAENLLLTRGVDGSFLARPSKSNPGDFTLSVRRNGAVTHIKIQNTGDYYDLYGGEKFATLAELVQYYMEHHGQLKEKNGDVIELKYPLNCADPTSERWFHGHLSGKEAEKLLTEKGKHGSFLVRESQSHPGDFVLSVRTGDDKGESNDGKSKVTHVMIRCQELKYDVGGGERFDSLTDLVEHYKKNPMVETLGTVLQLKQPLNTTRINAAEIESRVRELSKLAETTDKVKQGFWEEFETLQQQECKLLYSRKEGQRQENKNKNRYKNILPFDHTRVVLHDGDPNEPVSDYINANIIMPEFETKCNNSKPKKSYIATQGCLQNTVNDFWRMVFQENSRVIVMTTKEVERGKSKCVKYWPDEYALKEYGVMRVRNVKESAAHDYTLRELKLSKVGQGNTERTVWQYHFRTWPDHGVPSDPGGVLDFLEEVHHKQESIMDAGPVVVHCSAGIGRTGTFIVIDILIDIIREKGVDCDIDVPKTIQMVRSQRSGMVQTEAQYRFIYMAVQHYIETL

Turning to `Cc1csc(C2(CN)C3CCN(c4nc5[nH]nc(-c6cccc7ncccc67)c5nc4CO)CC32)n1` (centres unmarked) [Example 101, (6-(7-(aminomethyl)-7-(4-methylthiazol-2-yl)-3-azabicyclo[4.1.0]heptan-3-yl)-3-(quinolin-5-yl)-1H-pyrazolo[3,4-b]pyrazin-5-yl)methanol], the IC50 in assay [1] (setting [3]) is under 0.5 µM; in assay [2] (setting [4]), under 1 µM.
For `Cn1cc2c(Cl)c(-c3n[nH]c4nc(N5CC[C@@H]6[C@H](C5)[C@@]6(CN)c5ccc(F)cn5)cnc34)ccc2n1` [Example 120, ((1S,6R,7S)-3-(3-(4-chloro-2-methyl-2H-indazol-5-yl)-1H-pyrazolo[3,4-b]pyrazin-6-yl)-7-(5-fluoropyridin-2-yl)-3-azabicyclo[4.1.0]heptan-7-yl)methanamine], in that order: under 0.5 µM and under 1 µM.
As to `Cc1csc([C@@]2(CN)[C@@H]3CN(c4cnc5c(-c6ccc7cn(C(F)F)nc7c6Cl)n[nH]c5n4)C[C@@H]32)n1` [Example 464], the results for the half-inhibitory concentration (IC50) in assay [1] (setting [3]) and in assay [2] (setting [5]) were under 0.5 µM and under 1 µM, respectively.
In the case of `Cc1csc([C@@]2(CN)[C@@H]3CCN(c4cnc5c(-c6ccc(OS(=O)(=O)F)c7ncccc67)n[nH]c5n4)C[C@@H]32)n1` [Example 448, 5-(6-((1S,6R,7S)-7-(aminomethyl)-7-(4-methylthiazol-2-yl)-3-azabicyclo[4.1.0]heptan-3-yl)-1H-pyrazolo[3,4-b]pyrazin-3-yl)quinolin-8-yl sulfurofluoridate], the IC50 in assay [1] (SHP2wt-IC50, 0.5 nM SHP-2 activated by 500 nM IRS1 peptide) is under 0.5 µM; in assay [2] (Homo sapiens, KYSE-520, 2 h), under 1 µM.
Take `Cc1cc(C2(CN)C3CCN(c4cnc5c(Sc6ccnc(N)c6Cl)n[nH]c5n4)CC32)no1` (centres unmarked) [Example 53, 4-((6-(7-(aminomethyl)-7-(5-methylisoxazol-3-yl)-3-azabicyclo[4.1.0]heptan-3-yl)-1H-pyrazolo[3,4-b]pyrazin-3-yl)thio)-3-chloropyridin-2-amine]: the half-inhibitory concentration (IC50) is under 0.5 µM in assay [1] (setting [3]) and under 1 µM in assay [2] (setting [4]).
The matching figures for `NC[C@]1(c2ccccc2F)[C@@H]2CCN(c3cnc4c(-c5cccc6c(=O)[nH]ccc56)n[nH]c4n3)C[C@@H]21` [Example 209, 5-(6-((1S,6R,7R)-7-(aminomethyl)-7-(2-fluorophenyl)-3-azabicyclo[4.1.0]heptan-3-yl)-1H-pyrazolo[3,4-b]pyrazin-3-yl)isoquinolin-1(2H)-one]: under 0.5 µM and under 1 µM.
The matching figures for `Cc1cc([C@@]2(CN)[C@@H]3CCN(c4cnc5c(-c6cccc7c6OCCO7)n[nH]c5n4)C[C@@H]32)no1` [Example 40, ((1S,6R,7S)-3-(3-(2,3-dihydrobenzo[b][1,4]dioxin-5-yl)-1H-pyrazolo[3,4-b]pyrazin-6-yl)-7-(5-methylisoxazol-3-yl)-3-azabicyclo[4.1.0]heptan-7-yl)methanamine]: under 0.5 µM and under 1 µM.
As to `NC[C@]1(c2ccccc2F)[C@@H]2CCN(c3cnc4c(-c5cc6ccccc6c(=O)[nH]5)n[nH]c4n3)C[C@@H]21` [Example 235, 3-(6-((1S,6R,7R)-7-(aminomethyl)-7-(2-fluorophenyl)-3-azabicyclo[4.1.0]heptan-3-yl)-1H-pyrazolo[3,4-b]pyrazin-3-yl)isoquinolin-1(2H)-one], the IC50 in assay [1] (setting [3]) was under 0.5 µM; in assay [2] (setting [4]) it was over 5 µM.
For `CN(C)C(=O)c1ccc(-c2n[nH]c3nc(N4CC[C@@H]5[C@H](C4)[C@@]5(CN)c4ccccc4F)cnc23)c2cccnc12` [Example 212, 5-(6-((1S,6R,7R)-7-(aminomethyl)-7-(2-fluorophenyl)-3-azabicyclo[4.1.0]heptan-3-yl)-1H-pyrazolo[3,4-b]pyrazin-3-yl)-N,N-dimethylquinoline-8-carboxamide], in that order: under 0.5 µM and over 5 µM.
On to `NC[C@]1(c2ccccc2F)[C@@H]2CCN(c3cnc4c(-c5ccc6c(c5)S(=O)(=O)NC6=O)n[nH]c4n3)C[C@@H]21` [Example 249, 6-(6-((1S,6R,7R)-7-(aminomethyl)-7-(2-fluorophenyl)-3-azabicyclo[4.1.0]heptan-3-yl)-1H-pyrazolo[3,4-b]pyrazin-3-yl)benzo[d]isothiazol-3(2H)-one 1,1-dioxide], for which the IC50 is under 0.5 µM in assay [1] (setting [3]) and over 5 µM in assay [2] (setting [4]).
The matching figures for `COc1ccc(-c2n[nH]c3nc(N4CCC5C(C4)C5(CN)c4cc(C)on4)cnc23)c2cccnc12` (centres unmarked) [Example 22, (3-(3-(8-methoxyquinolin-5-yl)-1H-pyrazolo[3,4-b]pyrazin-6-yl)-7-(5-methylisoxazol-3-yl)-3-azabicyclo[4.1.0]heptan-7-yl)methanamine]: under 0.5 µM and under 1 µM.
The matching figures for `Cc1nc2ccc(-c3n[nH]c4nc(N5C[C@@H]6[C@H](C5)[C@@]6(CN)c5ccn(C)n5)cnc34)c(Cl)c2s1` [Example 475, ((1R,5S,6r)-3-(3-(7-chloro-2-methylbenzo[d]thiazol-6-yl)-1H-pyrazolo[3,4-b]pyrazin-6-yl)-6-(1-methyl-1H-pyrazol-3-yl)-3-azabicyclo[3.1.0]hexan-6-yl)methanamine]: under 0.5 µM and under 1 µM.
For `Cc1cc([C@@]2(CN)[C@@H]3CCN(c4cnc5c(-c6cc(F)cc7ncccc67)n[nH]c5n4)C[C@@H]32)no1` [Example 130, ((1S,6R,7S)-3-(3-(7-fluoroquinolin-5-yl)-1H-pyrazolo[3,4-b]pyrazin-6-yl)-7-(5-methylisoxazol-3-yl)-3-azabicyclo[4.1.0]heptan-7-yl)methanamine], in that order: 0.5 to 3 µM and under 1 µM.
In the case of `Cc1c(-c2n[nH]c3nc(N4CC[C@@H]5[C@H](C4)[C@@]5(CN)c4ccccc4F)cnc23)ccc2nn(C)nc12` [Example 205, ((1S,6R,7R)-3-(3-(2,4-dimethyl-2H-benzo[d][1,2,3]triazol-5-yl)-1H-pyrazolo[3,4-b]pyrazin-6-yl)-7-(2-fluorophenyl)-3-azabicyclo[4.1.0]heptan-7-yl)methanamine], the IC50 in assay [1] (setting [3]) is under 0.5 µM; in assay [2] (setting [4]) it was under 1 µM.
Take `Cc1cccc([C@@]2(CN)[C@@H]3CCN(c4cnc5c(-c6ccc7nn(C)cc7c6C)n[nH]c5n4)C[C@@H]32)c1F` [Example 184, ((1S,6R,7R)-3-(3-(2,4-dimethyl-2H-indazol-5-yl)-1H-pyrazolo[3,4-b]pyrazin-6-yl)-7-(2-fluoro-3-methylphenyl)-3-azabicyclo[4.1.0]heptan-7-yl)methanamine]: the IC50 was under 0.5 µM in assay [1] (setting [3]) and under 1 µM in assay [2] (setting [4]).
Turning to `Cn1cc2c(Cl)c(-c3n[nH]c4nc(N5CC[C@@H]6[C@H](C5)[C@@]6(CN)c5cc(F)ccc5F)cnc34)ccc2n1` [Example 369, ((1S,6R,7R)-3-(3-(4-chloro-2-methyl-2H-indazol-5-yl)-1H-pyrazolo[3,4-b]pyrazin-6-yl)-7-(2,5-difluorophenyl)-3-azabicyclo[4.1.0]heptan-7-yl)methanamine], the IC50 is under 0.5 µM in assay [1] (setting [3]) and under 1 µM in assay [2] (setting [4]).
Take `NC[C@]1(c2ccccc2F)[C@@H]2CCN(c3cnc4c(-c5ccc(-c6noc(O)n6)cc5Cl)n[nH]c4n3)C[C@@H]21` [Example 295, 3-(4-(6-((1S,6R,7R)-7-(aminomethyl)-7-(2-fluorophenyl)-3-azabicyclo[4.1.0]heptan-3-yl)-1H-pyrazolo[3,4-b]pyrazin-3-yl)-3-chlorophenyl)-1,2,4-oxadiazol-5-ol]: the figures for the IC50 in assay [1] (setting [3]) and in assay [2] (setting [4]) were under 0.5 µM and under 1 µM, respectively.
Consider `NC[C@]1(c2ccccc2F)[C@@H]2CCN(c3cnc4c(N5CCCc6ncccc65)n[nH]c4n3)C[C@@H]21` [Example 169, ((1S,6R,7R)-3-(3-(3,4-dihydro-1,5-naphthyridin-1(2H)-yl)-1H-pyrazolo[3,4-b]pyrazin-6-yl)-7-(2-fluorophenyl)-3-azabicyclo[4.1.0]heptan-7-yl)methanamine], for which the IC50 in assay [1] (setting [3]) is under 0.5 µM; in assay [2] (setting [4]) it was under 1 µM.
Take `COc1ccc(-c2n[nH]c3nc(N4CC[C@@H]5[C@H](C4)[C@@]5(CN)c4ccccc4F)cnc23)cc1F` [Example 399]: the values for the IC50 in assay [1] (setting [3]) and in assay [2] (setting [5]) were under 0.5 µM and under 1 µM, respectively.
For `NC[C@]1(c2ccccc2F)[C@@H]2CCN(c3cnc4nc(Sc5ccnc(N)c5Cl)ccc4n3)C[C@@H]21` [Example 395, 4-((2-((1S,6R,7R)-7-(aminomethyl)-7-(2-fluorophenyl)-3-azabicyclo[4.1.0]heptan-3-yl)pyrido[2,3-b]pyrazin-6-yl)thio)-3-chloropyridin-2-amine], the results for the IC50 in assay [1] (setting [3]) and in assay [2] (setting [4]) were under 0.5 µM and under 1 µM, respectively.
For `NC[C@]1(c2ccccc2F)[C@@H]2CCN(c3cnc4c(-c5ccc6ncsc6c5)n[nH]c4n3)C[C@@H]21` [Example 118, ((1S,6R,7R)-3-(3-(benzo[d]thiazol-6-yl)-1H-pyrazolo[3,4-b]pyrazin-6-yl)-7-(2-fluorophenyl)-3-azabicyclo[4.1.0]heptan-7-yl)methanamine], in that order: under 0.5 µM and under 1 µM.
For `COC(=O)c1ccc(-c2n[nH]c3nc(N4CC[C@@H]5[C@H](C4)[C@@]5(CN)c4ccccc4F)cnc23)c(Cl)c1` [Example 223, methyl 4-(6-((1S,6R,7R)-7-(aminomethyl)-7-(2-fluorophenyl)-3-azabicyclo[4.1.0]heptan-3-yl)-1H-pyrazolo[3,4-b]pyrazin-3-yl)-3-chlorobenzoate], in that order: under 0.5 µM and under 1 µM.

The record behind these values is patent US20240109900A1, “AZABICYCLIC SHP2 INHIBITORS” (IRBM S.P.A., priority 2021, published 2024).
